One data set has as its system HIV aspartyl protease. On the set-up: method as in PMID 9397180, PMID 9725550. The following applies: cited from earlier work.
In data set [1] the test system is HAdV-C2-dE3B-GFP. Kind of data set: quantification of viral protein expression (CMV-GFP, hexon) in infected A549 cells. The following applies: 46 hpi, at the tested concentrations. The class given is cell-based, human adenovirus. As to the method:
Infection, HAdV hexon immunofluorescence staining, and imaging were performed in technical quadruplicates, as described above for the microscopic plaque assay. Single nuclei (Hoechst) were segmented using CellProfiler ([178]). Median GFP and hexon signals per nucleus were measured, and infected nuclei were classified using the median GFP or hexon signal per nucleus. Subsequently, the mean and standard deviation (SD) over all infected nuclei per well were calculated using R version 3.3.2 ([179]). Data were plotted using GraphPad (version 8.1.2; GraphPad Software, Inc.).

Another data set has as its system CMT-93 cells. As to the kind of experiment: TC50, number of nuclei in noninfected treated cells. The following applies: noninfected CMT-93, nuclei, 4 dpi. The class given is cell-based, mouse. How it is done: (§1) Per 96-well plate, 15,000 A549 cells, 10,000 HeLa cells, 30,000 HBECs, 30,000 HCE cells, or 30,000 CMT-93 cells were seeded in 100 μl of the respective supplemented medium and allowed to settle for 1 h at room temperature (RT) prior to cell culture incubation at 37°C with 5% CO2 and 95% humidity. The following day, the medium was replaced with 50 μl of the respective virus stock dilution giving rise to 5 to 50 plaques per 96-well plate. Fifty microliters of nelfinavir to obtain a 0.1 to 50 μM final concentration or the DMSO solvent control was also added, both in supplemented medium. For each experiment, a noninfected, treated control was performed. […] Plates were imaged on either an IXM-XL or an IXM-C automated high-throughput fluorescence microscope (Molecular Devices, San Jose, CA, USA) using a 4× objective in wide-field mode. Hoechst staining was recorded in the 4′,6-diamidino-2-phenylindole (DAPI) channel, the fluorescein isothiocyanate (FITC)/GFP channel was acquired for viral GFP, and the tetramethyl rhodamine isothiocyanate (TRITC)/Texas Red channel was acquired for hexon immunofluorescence staining.
(§2) The infection phenotype for each well was quantified using Plaque2.0 ([101]). The number of plaques was determined based on the infection signal (viral GFP or hexon immunofluorescence staining). […] The mean TI50 was calculated as the EC50/TC50 ratio of the means. […]

The subject of a further data set is HAdV-C2-dE3B-GFP-dADP. As to the kind of experiment: fluorescence-based plaque-forming assay, HeLa cells. The following applies: for TI50 (TC50/IC50): HAdV-C2-dE3B-GFP-dADP in HeLa, 5 dpi, GFP. The class given is cell-based, human adenovirus. As to the method:
(§3) Per 96-well plate, 15,000 A549 cells, 10,000 HeLa cells, 30,000 HBECs, 30,000 HCE cells, or 30,000 CMT-93 cells were seeded in 100 μl of the respective supplemented medium and allowed to settle for 1 h at room temperature (RT) prior to cell culture incubation at 37°C with 5% CO2 and 95% humidity. The following day, the medium was replaced with 50 μl of the respective virus stock dilution giving rise to 5 to 50 plaques per 96-well plate. Fifty microliters of nelfinavir to obtain a 0.1 to 50 μM final concentration or the DMSO solvent control was also added, both in supplemented medium. For each experiment, a noninfected, treated control was performed. For uphill plaque assays, the medium volume was increased to 150 μl with identical virus and drug concentrations. For wash-in/washout experiments, the virus was incubated on cells in supplemented medium for 1 h at 37°C, cells were washed with PBS, and a 100-μl drug dilution in supplemented medium was added. All experiments were performed in four technical replicates or as indicated. Cells were incubated under standard cell culture conditions. At the indicated times postinfection, the cells were fixed, and the nuclei were stained for 1 h at RT by the addition of 33 μl 16% (wt/vol) paraformaldehyde (PFA) and 4 μg/ml Hoechst 33342 (Sigma-Aldrich, St. Louis, MO, USA) in PBS. Cells were washed three times with PBS and stored in PBS supplemented with 0.02% N3 for infections with viruses harboring a GFP transgene. For wild-type (wt) viruses, cells were quenched in PBS supplemented with 50 mM NH4Cl, permeabilized using 0.2% (vol/vol) Triton X-100 in PBS, and blocked with 0.5% (wt/vol) bovine serum albumin (BSA) in PBS. Cells were incubated with 381.7 ng/ml mouse anti-HAdV hexon protein antibody (Mab8052; Sigma-Aldrich, St. Louis, MO, USA) and subsequently stained using 2 μg/ml goat anti-mouse-Alexa Fluor 594 (catalog number A21203 or A32742; Thermo Fisher Scientific, Waltham, MA, USA). Plates were imaged on either an IXM-XL or an IXM-C automated high-throughput fluorescence microscope (Molecular Devices, San Jose, CA, USA) using a 4× objective in wide-field mode. Hoechst staining was recorded in the 4′,6-diamidino-2-phenylindole (DAPI) channel, the fluorescein isothiocyanate (FITC)/GFP channel was acquired for viral GFP, and the tetramethyl rhodamine isothiocyanate (TRITC)/Texas Red channel was acquired for hexon immunofluorescence staining.
(§4) The infection phenotype for each well was quantified using Plaque2.0 ([101]). The number of plaques was determined based on the infection signal (viral GFP or hexon immunofluorescence staining). Nuclei stained with Hoechst were segmented by using CellProfiler ([178]). Infected nuclei were classified based on the median infection signal per nucleus in CellProfiler. Data were plotted, and the EC50 (infected and treated cells), the TC50 (noninfected, treated cells), as well as the corresponding standard errors (SE) were determined using curve fitting in GraphPad (version 8.1.2; GraphPad Software, Inc.) using three-parameter inhibitor concentration-versus-response nonlinear regression. The mean TI50 was calculated as the […] ratio of the means. The TI50 SE was calculated by error propagation.

The subject of data set [2] is HAdV-C2-dE3B-GFP. Described as above. The class given is cell-based, human adenovirus. The following applies: for TI50 (TC50/IC50): HAdV-C2-dE3B-GFP in HeLa, 4 dpi, GFP. As to the method:
as §3, §4

Another data set has as its system MAdV-1-pIX-FS2A-GFP. As to the kind of experiment: fluorescence-based plaque-forming assay, CMT-93 cells. The class given is cell-based, mouse adenovirus 1. As to the method:
as §1, §2

A further data set concerns rec700 (HAdV-C5/2). As to the kind of experiment: fluorescence-based plaque-forming assay, A549 cells. The class given is cell-based, human adenovirus. How it is done: as §3, §4
The test system of another data set is dl712 (HAdV-C5/2-dADP). Described as above. The class given is cell-based, human adenovirus. As to the method:
as §3, §4

A further data set concerns the target T1, L3/p23 cysteine protease (Human adenovirus C serotype 5, UniProt P03253).
T1 construct: Double-CsCl-purified HAdV particles grown in the presence or absence of nelfinavir; endogenous in cells
Kind of data set: Western blot analysis of HAdV protease activity (pVI/VI, pVII/VII in purified HAdV-C5). The class given is cell-based. The following applies: purified HAdV-C5 grown in the presence of nelfinavir. As to the method: HAdV-C5 was amplified in medium containing 0, 1.25, or 3 μM nelfinavir for 4 days. Cells were harvested and disrupted by three freeze-thaw cycles. The cell debris was removed by freon extraction, and mature full HAdV virions were purified by two rounds of CsCl gradient ultracentrifugation ([162]). The protein concentration was determined by a bicinchoninic acid (BCA) assay (Pierce BCA protein assay kit; Thermo Fisher Scientific, Waltham, MA, USA). For long-term storage, virus stocks were supplemented with 10% (vol/vol) glycerol and kept at −80°C.
Double-CsCl-purified HAdV particles grown in the presence or absence of nelfinavir (HAdV-C5^±Nelfinavir stocks) and a size standard (PageRuler plus; Thermo Fisher Scientific, Waltham, MA, USA) were size separated on a 12% acrylamide gel under reducing conditions and transferred to a polyvinylidene difluoride (PVDF) membrane. HAdV proteins were detected using primary antibodies, 1:10,000 R72 rabbit antifiber ([181]), 1:1,000 rabbit anti-pVI/VI ([51]), and 1:1,000 R3 rabbit anti-pVII/VII (Ulf Pettersson, Uppsala University), and visualized using goat anti-rabbit-horseradish peroxidase (HRP) (catalog number 7074; Cell Signaling Technology, Danvers, MA, USA) and the ECL Prime Western blotting detection reagent (GE Healthcare, Pittsburgh, PA, USA). […]
For orientation: A western blot detects proteins with antibodies after separation by electrophoresis.

Structures are written as SMILES. pEC50: −log10 of the molar value. Counter-ions that a name gives are not always drawn.

T1 sequence (P03253 whole entry): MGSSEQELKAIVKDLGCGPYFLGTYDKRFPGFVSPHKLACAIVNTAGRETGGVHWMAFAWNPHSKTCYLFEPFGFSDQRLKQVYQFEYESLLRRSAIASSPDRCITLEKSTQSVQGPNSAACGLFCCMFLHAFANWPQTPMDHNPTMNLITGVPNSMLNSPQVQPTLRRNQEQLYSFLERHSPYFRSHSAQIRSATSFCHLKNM

As to `Cc1c(O)cccc1C(=O)N[C@@H](CSc1ccccc1)[C@H](O)CN1C[C@H]2CCCC[C@H]2C[C@H]1C(=O)NC(C)(C)C` [Nelfinavir, Nelfinavir mesylate], the inhibitory concentration result in the data set on HIV aspartyl protease is “low-nanomolar range”. The “effect on GFP or hexon expression” value in the data set with HAdV-C2-dE3B-GFP [1] is reported as “no effect”. Moreover, the TC50 with CMT-93 cells (line MAdV-1-pIX-FS2A-GFP) came to 21.29 µM; in the data set on CMT-93 cells (line MAdV-3-pIX-FS2A-GFP) it was 26.07 µM. Besides, the “TI50 (TC50/IC50)” value in the data set with HAdV-C2-dE3B-GFP-dADP turned out to be 8.91; in the data set with HAdV-C2-dE3B-GFP-dADP (listed as nelfinavir), 8.9; in the data set with HAdV-C2-dE3B-GFP [2], 61.03; in the data set on HAdV-C2-dE3B-GFP [2] (listed as nelfinavir), 61.0; with MAdV-1-pIX-FS2A-GFP (MAdV-1-pIX-FS2A-GFP in CMT-93, 4 dpi, GFP) it was 1.03; in the data set with rec700 (HAdV-C5/2) (rec700 (HAdV-C5/2) in A549, 4 dpi, Hexon), 177.41. Besides, in the data set on dl712 (HAdV-C5/2-dADP) (dl712 (HAdV-C5/2-dADP) in A549, 5 dpi, Hexon), the “TI50 (TC50/IC50)” value was determined as 2.18. The pEC50 (in general, the EC50 on a negative log10 scale, so that one unit is a factor of ten) is 5.33 in the data set on HAdV-C2-dE3B-GFP-dADP (Human adenovirus sp., HeLa); 6.31 with HAdV-C2-dE3B-GFP [2] (Human adenovirus sp., HeLa); 4.68 with MAdV-1-pIX-FS2A-GFP (Murine mastadenovirus A, CMT93); 7.15 with rec700 (HAdV-C5/2) (Human adenovirus sp., A549); 5.16 in the data set on dl712 (HAdV-C5/2-dADP) (Human adenovirus sp., A549). The “effect on proteolytic maturation of the virus by L3/p23 cysteine protease” value on L3/p23 cysteine protease was “did not affect”.

Source of the values: PMC7449217, “The FDA-Approved Drug Nelfinavir Inhibits Lytic Cell-Free but Not Cell-Associated Nonlytic Transmission of Human Adenovirus” (Antimicrobial Agents and Chemotherapy, 2020).
